Measured values: patent US20200078459A1, “NEAR INFRARED (NIR) PHOTODYNAMIC THERAPY (PDT) IN COMBINATION WITH CHEMOTHERAPY” (Health Research, Inc., priority 2016, published 2020)
Read-outs that look alike come from different tables or passages of the source.

Experiments:
[1] = test system: FaDu head and neck cancer xenografts; assay: PDT response and antitumor activity in SCID mice bearing FaDu head and neck cancer xenografts; type: in vivo
Protocol: First dose of irinotecan: 1 h post-PDT treatment.
Human head and neck cancer xenografts (FaDu and H&N 85-1)
The treatment was initiated 7-10 post transplantation.

[2] = test system: non-small cell carcinoma (NSCLC) xenografts; settings: for antitumor activity of the alone drug: no PDT
Protocol: 3) Tumor transplantation: the xenografts used for antitumor activity were transplanted subcutaneously. The treatment was initiated 7-10 days post transplantation. 4) Tumor measurement: two axes (mm) of tumor (L, longest axis; W, shortest axis) were measured with the aid of a Vernier caliper. Tumor weight (mg) was estimated as a formula tumor weight ½ (L×W2). Tumor measurements were taken after the scabbing healed post PDT and at least three times a week for post therapy and twice a week therefore. 5) Tumor regression: complete tumor regression (CR) was defined as the inability to detect tumor by palpation at the initial site of tumor appearance for more than two months post therapy. […] Partial tumor regression (PR) was defined as ≥50% reduction in initial tumor size. Normally, 5 mice per treatment group were included in these experiment groups and repeated at least twice.
PDT of Subcutaneous Tumors—Tumor bearing mice are injected via the tail vein with HPPH or derivatives at doses that are non-toxic unless exposed to light. For tail vein injections, mice were gently restrained in approved holders and their tails were briefly (less than 1 minute) dipped in warm sterile water (˜40° C.). Photosensitizers are injected in a volume of less than 0.2 mL into the tail vein using a 27-gauge needle.
The photosensitizers, at 24 hours (or the optimal time determined by optical imaging) after administration of HPPH or derivatives, the animals were partially restrained allowing leg movement, in specially designed holders without anesthesia.
Tumors are exposed to visible light (1 cm diameter) at power densities of less than 100 mW/cm^2. The light sources are either a dye laser (with a tunable range of 600 to 800 nm), at the optimal excitation wavelength for the individual photosensitizer; or a pulsed laser with a range of 460 to 800 nm. The treatment will vary, depending on the light dose (J/cm^2) and fluence rate (mW/cm^2) required, but usually is for approximately 30 minutes.
After light exposure, the mice are monitored closely for at least 1 hour and then daily until the re-growing tumors reach no more than 2 cm in the greatest dimension or for a maximum of 60 days (post treatment) at which time they are euthanized. All animals will be euthanized within 90 days of tumor implantation.

[3] = patients advised to be away from sunlight at least 6-8 weeks after the light treatment; cited from earlier work
[4] = Skin phototoxicity of the photosensitizers; type: in vivo; settings: in contrast to most of the clinically approved PS
[5] = test system: skin cancer (basal cell carcinoma) early lung cancer and esophageal cancers; assay: Phase I human clinical trials of HPPH; type: in vivo
[6] = 5 mg/kg weekly×3 doses, in combination with HPPH or Photobac with PDT, 8/10 mice

CCc1c2c(nc3ccc(OC(=O)N4CCC(N5CCCCC5)CC4)cc13)-c1cc3c(c(=O)n1C2)COC(=O)[C@]3(O)CC [Irinotecan, irinotecan]
CR (complete tumor regression) ([1]; 100 mg/kg weekly×4 doses, in combination with HPPH and PDT, 11/15 mice): 73%
toxicity ([1]; PDT ± chemotherapy, in the used doses): no significant effects
antitumor activity of the alone drug ([1]; drug alone, 100 mg/kg weekly×4 doses, no PDT): not effective
CR (complete tumor regression) ([1]; in combination with Photobac (PDT), 3/5 mice): 60%

N.N.[Cl][Pt][Cl] [Cisplatin, cisplatin]
CR (complete tumor regression) [2, 6]: 80%
antitumor activity of the alone drug ([2]; 5 mg/kg weekly×3 doses): not effective

Photofrin
skin phototoxicity in patients [3]: severe skin phototoxicity

COc1cccc2c1C(=O)c1c(O)c3c(c(O)c1C2=O)C[C@@](O)(C(=O)CO)C[C@@H]3O[C@H]1C[C@H](N)[C@H](O)[C@H](C)O1 [Doxorubicin, doxorubicin]
CR (complete tumor regression) [2, 6]: 80%
antitumor activity of the alone drug ([2]; 5 mg/kg weekly×3 doses): not effective
toxicity ([2]; mouse, in vivo): no significant effects

CCCCOC(C)c1c(C)c2cc3nc(c4c5[nH]c(cc6nc(cc1[nH]2)C(C)C6CC)c(C)c5C(=O)N(CCCC)C4=O)C(CCC(=O)OC)C3C (centres unmarked) [Photobac, 3-(1′-butyloxy)ethyl-3-deacetyl-bacteriopurpurin-18-N-butyl-imide methyl ester]
skin photo toxicity [4]: do not produce any skin photo toxicity

CCCCCCOC(C)c1c(C)c2cc3nc(c4c5[nH]c(cc6nc(cc1[nH]2)C(C)=C6CC)c(C)c5C(=O)C4)[C@@H](CCC(=O)O)[C@@H]3C (some centres unmarked) [HPPH, 3-(1′-hexyloxy)ethyl-3-devinylpyropheopphorbide-a]
CR (complete tumor regression) ([2]; PDT with HPPH, without chemotherapy): 20%
skin photo toxicity [4]: do not produce any skin photo toxicity
effectiveness in treatment of cancer [5]: effective
